The values below come from patent US12403132B2, “Methods of treating bone marrow failure syndromes and compositions for use in the same” (The Board of Trustees of the Leland Stanford Junior …, priority 2020, dated 2025).

The structures appear in SMILES notation.

The test system of one series is S6K. Briefly: S6K phosphorylation in differentiating RPS19-insufficient CD34+ progenitors. The class given is cell-based, human. Particulars: 5 μM, differentiating RPS19-insufficient cells. Here is the method: FIG. 5. NLK-mediated phosphorylation of raptor leads to reduced mTOR activity and increased autophagy. (a) Fetal liver CD34+ progenitors were transduced with controls or shRPS19 and differentiated for 5 days in the presence or absence of 5 μM BI-D1870 (RSK inhibitor). Samples were lysed and normalized for protein abundance before being subjected to immunoprecipitation of NLK, raptor, S6K and 4E-BP1. Immunoprecipitated NLK was utilized to examine NLK activity (a—top panel—Orange, blue and green depict NLK, Myb and raptor phosphorylation respectively), while raptor, S6K and 4E-BP1 were subjected to western blotting for phosphorylated serine/threonine residues (bottom panels). In parallel, lysates were probed for total raptor, S6K, 4E-BP1, NLK and GAPDH (bottom panels) by Western blotting. […] (d) Cells treated as above were plated in 96 wells and absorbance measured at a wavelength of 520 nm. […] After imagining, 100 cells per group were analyzed and the number of intense fluorescent puncta per cell was scored (lower panels).
Raptor is the regulatory component of the mTOR Complex 1 and a substrate of NLK in osmotic and oxidative stress. […] We determined immuno-purified NLK from human and murine RPS19- and RPL11-insufficient progenitors, as well as derived from DBA patients can phosphorylate raptor in vitro (FIGS. 1-4). […]

Another series addresses T1, NLK (Homo sapiens, UniProt Q9UBE8).
T1 sequence (Q9UBE8 1-527): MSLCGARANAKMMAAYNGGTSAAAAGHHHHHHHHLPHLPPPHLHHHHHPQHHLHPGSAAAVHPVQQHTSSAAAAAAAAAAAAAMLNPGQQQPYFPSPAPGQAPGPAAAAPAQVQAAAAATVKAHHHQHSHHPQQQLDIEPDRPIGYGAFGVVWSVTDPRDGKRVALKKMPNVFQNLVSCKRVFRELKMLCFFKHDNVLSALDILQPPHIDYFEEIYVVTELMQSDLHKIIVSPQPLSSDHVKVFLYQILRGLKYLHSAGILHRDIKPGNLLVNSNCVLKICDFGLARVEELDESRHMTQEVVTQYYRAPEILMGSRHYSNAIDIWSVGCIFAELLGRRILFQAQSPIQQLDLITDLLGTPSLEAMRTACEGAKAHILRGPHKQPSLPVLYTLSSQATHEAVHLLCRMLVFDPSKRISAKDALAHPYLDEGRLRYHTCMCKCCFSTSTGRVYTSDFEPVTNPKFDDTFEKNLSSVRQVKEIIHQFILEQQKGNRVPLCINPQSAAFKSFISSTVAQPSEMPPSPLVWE
Briefly: NLK inhibition by OTS167 in DBA models. The text has this:
(§1) IV. Nemo-like kinase (NLK) is hyperactivated in red cell precursors in the bone marrow of patients with DBA. Inhibition of NLK by knockdown or chemical compounds in our in vitro DBA models results in improvement of red cell production. Regardless of the underlying genetic mutation causing DBA, NLK is hyperactivated. […] Our goal is to next test OTS167 in mouse models of DBA. According to clinical trials.gov, OTS167 is currently in trials for AML, ALL, MDS, MPN, and CML, solid tumors, and breast cancer, but not DBA. This is the first example of a targeted therapy for all DBA patient regardless of the underlying mutations. Giving this drug would be easier and cheaper than gene editing to correct the gene defect.

Another series has as its system red cell production. The series can be described thus: Red cell production in in vitro DBA models. The class given is cell-based.
Source text: as §1

The subject of another series is normal bone marrow cells. The series can be described thus: Toxicity to normal bone marrow cells. The format is cell-based. Particulars: in vitro.
Source text: as §1

For `CC(C)CCN1c2nc(Nc3cc(F)c(O)c(F)c3)ncc2N(C)C(=O)C1C` (stereo not shown) [BI-D1870], the S6K phosphorylation result in the series with S6K is reported as “reduced to below basal levels”.

Consider `CC(=O)c1cnc2ccc(-c3cc(Cl)c(O)c(Cl)c3)nc2c1N[C@H]1CC[C@H](CN(C)C)CC1` [OTS167], for which the “inhibition of NLK” value against NLK was “inhibit NLK”. Also, the “red cell production in vitro” value in the series with red cell production was “improves red cell production”. Moreover, in the series on normal bone marrow cells, the “toxicity to normal bone marrow cells” value is listed as “without toxicity”.
